Test results taken from ChEMBL document CHEMBL3351504, “Discovery and structure-based optimization of adenain inhibitors” (ACS Med Chem Lett, 2014).
Values after ≈ are worked out from the molar mass of the structure shown.

Experiments:
[1] = Inhibition of human adenovirus serotype 8 adenain protease expressed in Escherichia coli […] (DE3) using Ac-WLRGG*ARC(PT14)-NH2 as substrate by FLT assay; design: species or system Human adenovirus 8
[2] = Inhibition of human adenovirus serotype 5 adenain protease expressed in Escherichia coli […] (DE3) using Ac-WLRGG*ARC(PT14)-NH2 as substrate by FLT assay; design: species or system Human adenovirus 5
[3] = High throughput equilibrium solubility at pH 6.8; format: physicochemical; conditions: buffer
[4] = Permeability from apical to basolateral side in human Caco2 cells; format: ADME, cell-based; conditions: Caco-2, read-out: permeability
[5] = Permeability from basolateral to apical side in human Caco2 cells; format: ADME, cell-based; conditions: Caco-2, read-out: permeability
Human adenovirus 5 = test: Antiviral activity against human adenovirus 5 infected in HEK293 cells assessed as reduction in viral induced cytopathogenicity incubated for 5 days by Celltiter-Glo luminescent cell viability assay; format: functional, organism-based; conditions: Human mastadenovirus C, HEK293, 120 h
[6] = Inhibition of adenovirus adenain; design: species or system unidentified adenovirus

| SMILES | IC50 [1] [nM] | IC50 [2] [nM] | solubility thermodynamic [3] [µM] | Papp A→B [4] [×10⁻⁶ cm/s] | Papp B→A [5] [×10⁻⁶ cm/s] | EC50 (Human adenovirus 5) [µM] | IC50 [6] [µM] |
| --- | --- | --- | --- | --- | --- | --- | --- |
| C[C@@H](O)[C@H](NC(=O)Cc1cc(Cl)cc(Cl)c1)C(=O)NCC(=O)NCC#N | 80 | 30 | 121 (≈ 48.6 µg/mL) |  |  |  |  |
| CC[C@H](C)[C@H](NC(=O)[C@@H](O)c1cc(Cl)cc(Cl)c1)C(=O)NCc1ccnc(C#N)n1 | 20 | 8 | 236 (≈ 106 µg/mL) | 18.3 | 11.3 | 7.2 |  |
| CC[C@H](C)[C@H](NC(=O)[C@@H](O)c1cc(Cl)cc(Cl)c1)C(=O)NCC(=O)NCC#N | 50 | 50 |  | 3 | 28 |  |  |
| CC[C@H](C)[C@H](NC(=O)C(c1cc(Cl)cc(Cl)c1)N(C)C)C(=O)NCc1ccnc(C#N)n1 (mixture of isomers) | 60 | 20 | 61 | 17.8 | 10.1 | 6.7 |  |
| CC(C)(C)[C@H](NC(=O)Cc1cc(Cl)cc(Cl)c1)C(=O)NCC(=O)NCC#N | 80 | 40 | 85 (≈ 35.1 µg/mL) | 5.4 | 23.8 |  |  |
| N#CCNC(=O)CNC(=O)[C@H](Cc1ccccc1)NC(=O)Cc1cc(Cl)cc(Cl)c1 | 70 | 40 | 30 (≈ 13.4 µg/mL) | 1.2 | 8.1 |  |  |
| CS(=O)(=O)N[C@H](C(=O)N[C@@H](Cc1ccccc1)C(=O)NCC(=O)NCC#N)c1cccc(Cl)c1 | 40 | 30 | 170 (≈ 86 µg/mL) | 1.2 | 7.5 |  | 0.04 |
| N#CCNC(=O)CNC(=O)[C@H](CN)NC(=O)Cc1cc(Cl)cc(Cl)c1 | 80 | 40 | 891 (≈ 344 µg/mL) | 1 | 1.2 |  |  |
| N#Cc1ncc(C(=O)NCc2ccccc2)cn1 |  |  |  |  |  |  | 24 |
| COC[C@H](NC(=O)Cc1cc(Cl)cc(Cl)c1)C(=O)NCc1ccnc(C#N)n1 | 4 | 2 | 52 (≈ 22 µg/mL) | 23.2 | 14.8 | 3.2 |  |
| CC(C(=O)N[C@@H](Cc1ccccc1)C(=O)NCC(=O)NCC#N)c1cc(Cl)cc(Cl)c1 (mixture of isomers) | 30 | 6 | 50 |  |  |  |  |
| C[C@@H](O)[C@H](NC(=O)Cc1cc(Cl)cc(Cl)c1)C(=O)NCc1ccnc(C#N)n1 | 3 | 2 | 556 (≈ 235 µg/mL) | 12.2 | 14.1 | 1.2 |  |
| N#CCNC(=O)CNC(=O)C(Cc1ccccn1)NC(=O)Cc1cc(Cl)cc(Cl)c1 (racemic) | 360 | 140 | 111 (≈ 49.8 µg/mL) | 0.7 | 15 |  |  |
| N#CCNC(=O)CNC(=O)[C@H](Cc1ccccc1)NC(=O)Cc1cccc(Cl)c1 | 380 | 280 | 150 (≈ 61.9 µg/mL) | 1.2 | 7.4 |  |  |
| N#CCNC(=O)CNC(=O)[C@H](Cc1ccccc1)NC(=O)[C@@H](O)c1cccc(Cl)c1 | 70 |  |  | 2.2 | 3.2 |  |  |
| CC[C@H](C(=O)N[C@H](C(=O)NCC(=O)NCC#N)C(C)(C)C)c1cc(Cl)cc(Cl)c1 | 20 | 10 | 5 (≈ 2.21 µg/mL) | 7.3 | 12.2 | 2.5 |  |
| CC[C@H](C(=O)N[C@H](C(=O)NCC(=O)NCC#N)[C@@H](C)O)c1cc(Cl)cc(Cl)c1 | 30 | 5 | 1000 (≈ 429 µg/mL) | 2.6 | 18 |  |  |
